Reference: patent publication US8871767B2, “2-arylimidazo[1,2-B]pyridazine, 2-phenylimidazo[1,2-A]pyridine, and 2-phenylimidazo[1,2-A]pyrazine derivatives” (Hengrui (USA) Ltd., priority 2010, dated 2014)
Like-named read-outs stand apart in the source and are kept apart here.

Experiments:
[1] = tested on: Hedgehog pathway activation on 10T1/2/Smo#3 cells (C3H10T1/2 cells transfected with human Smoothened receptor); assay: Hedgehog pathway activation on 10T1/2/Smo#3 cells measured by ALP activity; format: cell-based; details: Mus musculus, C3H 10T1/2, 10T1/2/Smo#3 cells
How it was run: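 C3H10T1/2 cells stably expressing human Smoothened were activated with hShh-conditioned medium (10-20%) or 500 nM SAG, with test compounds present. Pathway block read as inhibited ALP activity (4-methylumbelliferyl phosphate fluorescence); viability checked by CellTiter-Blue. IC50 values reported.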

[2] = tested on: Hedgehog pathway activation (GLi-luciferase reporter) in Shh Light II reporter cells; assay: Hedgehog pathway activation on Shh Light II reporter cells measured by luciferase activity; format: cell-based
How it was run: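 Shh Light II reporter cells carrying a hedgehog-responsive GLi-luciferase reporter were stimulated either with 500 nM SAG, a direct Smoothened agonist, or with conditioned media containing human Sonic Hedgehog (hShh). Test compounds were evaluated for blocking this pathway activation, quantified by luciferase activity. Cell viability was monitored in parallel with the Celltiter-Blue® assay.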

[3] = measured by ALP activity, read-out: ALP (IC50, inhibition of Hedgehog pathway activation)
[4] = Mus musculus, Shh Light II, hShh activation, read-out: Shh (IC50, inhibition of Hedgehog pathway activation)
[5] = hShh activation, ALP activity, read-out: 10T1/2/Smo#3 ALP activity (hShh Activation)
[6] = Mus musculus, Shh Light II, SAG activation (500 nM SAG), read-out: Shh Light II luciferase activity (SAG activation)
[7] = Mus musculus, Shh Light II, hShh activation, read-out: Shh Light II luciferase activity (hShh activation)

For `CN(C)c1ncc(-c2ccc3nc(-c4ccc(C(F)(F)F)c(NC(=O)C(C)(C)C)c4)cn3n2)cn1` [Example 378, N-(5-(6-(2-(dimethylamino)pyrimidin-5-yl)imidazo[1,2-b]pyridazin-2-yl)-2-(trifluoromethyl)phenyl)pivalamide], the IC50 [1, 3] was 963 nM and the IC50 [2, 4] was 1540 nM.
Compound `Cc1ccc(-c2cn3nc(-c4cccc(OCCCCCC(=O)NO)c4C(F)(F)F)ccc3n2)cc1NC(=O)C(C)(C)C` [Example 438, N-hydroxy-6-(3-(2-(4-methyl-3-pivalamidophenyl)imidazo[1,2-b]pyridazin-6-yl)-2-(trifluoromethyl)phenoxy)hexanamide] has an IC50 [1, 3] of 2600 nM and an IC50 [2, 4] of 1160 nM.
`CCOc1ccc2nc(-c3ccc(C(F)(F)F)c(NC(=O)C4CCCC4)c3)cn2n1` [Example 189, N-(5-(6-ethoxyimidazo[1,2-b]pyridazin-2-yl)-2-(trifluoromethyl)phenyl)cyclopentanecarboxamide] was tested, and the IC50 [1, 3] was 2100 nM and the IC50 [2, 4] was 2000 nM.
With `CC(C)(C)C(=O)Nc1cc(-c2cn3nc(-c4ccc(C(F)(F)F)cc4)ccc3n2)ccc1C(F)(F)F` [Example 210, N-(2-(trifluoromethyl)-5-(6-(4-(trifluoromethyl)phenyl)imidazo[1,2-b]pyridazin-2-yl)phenyl)pivalamide] the IC50 [1, 3] was 375 nM and the IC50 [2, 4] was 223 nM.
In the case of `Cc1ccc(-c2cn3nc(N4CCC(O)C4)ccc3n2)cc1NC(=O)C(C)(C)C` (stereo not shown) [Example 468, N-(5-(6-(3-hydroxypyrrolidin-1-yl)imidazo[1,2-b]pyridazin-2-yl)-2-methylphenyl)pivalamide], the IC50 [1, 3] is reported as 23 nM and the IC50 [2, 4] is reported as 44 nM.
`CC(C)(C)C(=O)Nc1cc(-c2cn3nc(OCCN4CCCCC4)ccc3n2)ccc1C(F)(F)F` [Example 309, N-(5-(6-(2-(piperidin-1-yl)ethoxy)imidazo[1,2-b]pyridazin-2-yl)-2-(trifluoromethyl)phenyl)pivalamide] gave an IC50 [1, 3] of 973 nM and an IC50 [2, 4] of 339 nM.
`Cc1ccc(-c2cn3nc(NCc4ccc(C(=O)Nc5ccccc5N)cc4)ccc3n2)cc1NC(=O)C(C)(C)C` [compound 599] gave an IC50 [1, 3] of 248 nM and an IC50 [2, 4] of 48 nM.
In the case of `CCN(CC)C(=O)Nc1cc(-c2cn3nc(-c4cccnc4C(F)(F)F)ccc3n2)ccc1F` [Example 685, 1,1-diethyl-3-(2-fluoro-5-(6-(2-(trifluoromethyl)pyridin-3-yl)imidazo[1,2-b]pyridazin-2-yl)phenyl)urea], the IC50 [1, 3] is reported as 274 nM and the IC50 [2, 4] is reported as 139 nM.
`Cc1ccc(-c2cn3nc(-c4cccc(OCC(=O)NO)c4C(F)(F)F)ccc3n2)cc1NC(=O)C(C)(C)C` [Example 439, N-(5-(6-(3-(2-(hydroxyamino)-2-oxoethoxy)-2-(trifluoromethyl)phenyl)imidazo[1,2-b]pyridazin-2-yl)-2-methylphenyl)pivalamide] showed an IC50 [1, 3] of 746 nM and an IC50 [2, 4] of 365 nM.
`CC(C)(C)C(=O)Nc1cc(-c2cn3nc(-c4ccc(F)cc4F)ccc3n2)ccc1C(F)(F)F` [Example 183, N-(5-(6-(2,4-difluorophenyl)imidazo[1,2-b]pyridazin-2-yl)-2-(trifluoromethyl)phenyl)pivalamide] showed an IC50 [1, 3] of 995 nM and an IC50 [2, 4] of 327 nM.
With `Cc1ccnc(-c2ccc3nc(-c4ccc(C(F)(F)F)c(NC(=O)C(C)(C)C)c4)cn3n2)c1` [Example 151, N-(5-(6-(4-methylpyridin-2-yl)imidazo[1,2-b]pyridazin-2-yl)-2-(trifluoromethyl)phenyl)pivalamide] the IC50 [1, 3] was 1810 nM and the IC50 [2, 4] was 899 nM.
`O=C(Nc1cc(-c2cn3nc(-c4cccnc4C(F)(F)F)ccc3n2)ccc1F)C1CC1` [Example 681, N-(2-fluoro-5-(6-(2-(trifluoromethyl)pyridin-3-yl)imidazo[1,2-b]pyridazin-2-yl)phenyl)cyclopropanecarboxamide] gave an IC50 [1, 3] of 6560 nM and an IC50 [2, 4] of 976 nM.
`CC(C)(C)C(=O)Nc1cc(-c2cn3nc(N4CCC[C@@H](O)C4)ccc3n2)ccc1C(F)(F)F` [Example 357, (R)-N-(5-(6-(3-hydroxypiperidin-1-yl)imidazo[1,2-b]pyridazin-2-yl)-2-(trifluoromethyl)phenyl)pivalamide] gave an IC50 [1, 3] of 445 nM and an IC50 [2, 4] of 151 nM.
In the case of `COc1ccc2nc(-c3ccc(C)c(NC(=O)C(C)(C)C)c3)c(C)n2n1` [Example 121, N-(5-(6-methoxy-3-methylimidazo[1,2-b]pyridazin-2-yl)-2-methylphenyl)pivalamide], the IC50 [1, 5] is reported as 300 to 3000 nM, the IC50 [1, 3] is reported as 1870 nM and the IC50 [2, 6] is reported as 3000 to 30000 nM. The IC50 [2, 4] was 2000 nM and the IC50 [2, 7] was 300 to 3000 nM.
For `Cc1cc(F)c(-c2cn3nc(-c4cccnc4C(F)(F)F)ccc3n2)cc1NC(=O)C(C)(C)C` [Example 649, N-(4-fluoro-2-methyl-5-(6-(2-(trifluoromethyl)pyridin-3-yl)imidazo[1,2-b]pyridazin-2-yl)phenyl)pivalamide], the IC50 [1, 3] was 50 nM and the IC50 [2, 4] was 80 nM.
`CC(C)Oc1ccc2nc(-c3ccc(C(F)(F)F)c(NC(=O)C(C)(C)C)c3)cn2n1` [Example 181, N-(5-(6-isopropoxyimidazo[1,2-b]pyridazin-2-yl)-2-(trifluoromethyl)phenyl)pivalamide] gave an IC50 [1, 3] of 1070 nM and an IC50 [2, 4] of 245 nM.
Work on `CC(C)(C)CC(=O)Nc1cc(-c2cn3nc(-c4cccnc4C(F)(F)F)ccc3n2)ccc1Cl` [Example 672, N-(2-chloro-5-(6-(2-(trifluoromethyl)pyridin-3-yl)imidazo[1,2-b]pyridazin-2-yl)phenyl)-3,3-dimethylbutanamide] yielded an IC50 [1, 3] of 565 nM and an IC50 [2, 4] of 86 nM.
For `CC(C)(C)NS(=O)(=O)c1cc(-c2cn3nc(-c4cccnc4C(F)(F)F)ccc3n2)ccc1Cl` [Example 699, N-tert-butyl-2-chloro-5-(6-(2-(trifluoromethyl)pyridin-3-yl)imidazo[1,2-b]pyridazin-2-yl)benzenesulfonamide], the IC50 [1, 3] was over 10000 nM and the IC50 [2, 4] was 2300 nM.
`CC(C)(C)C(=O)Nc1cc(-c2cn3nc(Cl)ccc3n2)ccc1C(F)(F)F` [Example 126, N-(5-(6-chloroimidazo[1,2-b]pyridazin-2-yl)-2-(trifluoromethyl)phenyl)pivalamide] was tested, and the IC50 [1, 3] was 5570 nM and the IC50 [2, 4] was 7720 nM.
For `CC(C)(C)C(=O)Nc1cc(-c2cn3nc(N4CCCC(O)C4)ccc3n2)ccc1C(F)(F)F` (stereo not shown) [Example 471, N-(5-(6-(3-hydroxypiperidin-1-yl)imidazo[1,2-b]pyridazin-2-yl)-2-(trifluoromethyl)phenyl)pivalamide], the IC50 [1, 3] was 445 nM and the IC50 ([2]; hShh activation, read-out: Shh (IC50, inhibition of Hedgehog pathway activation)) was 151 nM.
In the case of `Cc1c(-c2ccccc2)nc2ccc(N3CCN(Cc4cccnc4)CC3)nn12` [Example 161, 3-methyl-2-phenyl-6-(4-(pyridin-3-ylmethyl)piperazin-1-yl)imidazo[1,2-b]pyridazine], the IC50 [1, 5] is reported as 300 to 3000 nM, the IC50 [1, 3] is reported as 404 nM and the IC50 [2, 6] is reported as 300 to 3000 nM. The IC50 [2, 4] was 911 nM and the IC50 [2, 7] was 300 to 3000 nM.
Compound `CCOc1ccc2nc(-c3ccc(C(F)(F)F)c(Br)c3)cn2n1` [Example 204, 2-(3-bromo-4-(trifluoromethyl)phenyl)-6-ethoxyimidazo[1,2-b]pyridazine] has an IC50 [1, 5] of 3000 to 30000 nM, an IC50 [1, 3] of 9530 nM and an IC50 [2, 6] of 3000 to 30000 nM. It also gave an IC50 [2, 4] of over 10000 nM and an IC50 [2, 7] of 3000 to 30000 nM.
`CC(C)(C)C(=O)Nc1cc(-c2cn3nc(N4CCOCC4)ccc3n2)ccc1C(F)(F)F` [Example 232, N-(5-(6-morpholinoimidazo[1,2-b]pyridazin-2-yl)-2-(trifluoromethyl)phenyl)pivalamide] was tested, and the IC50 [1, 3] was 414 nM and the IC50 [2, 4] was 428 nM.
